Assay results as given in patent US4007179A, “Oxoindanylpropionic acids and process for the preparation thereof” (Sankyo Company Limited, priority 1975, dated 1977).

Legend:
Type in all cases: in vivo
[1] = Antipyretic activity: TTG-induced fever test in guinea pigs; details: Cavia porcellus, po, read-out: ID50 Antipyretic
Excerpt: Antipyretic activity Tested by TTG-induced fever test in guinea pigs [ modified methodof S. Kobayashi, H. Takagi; Jap.

[2] = Analgesic activity: thermal pain test in rats; details: Rattus norvegicus, po, read-out: ID50 Analgesic
[3] = Anti-inflammatory activity: carrageenin edema test in rats; details: Rattus norvegicus, po, read-out: ID50 Anti-inflammatory
Excerpt: Anti-inflammatory activity
Tested by carrageenin edema test in rats [C.

[4] = TTG-induced fever test in guinea pigs

| SMILES | ED50 [1, 4] [mg/kg] | ED50 ([2]; thermal pain test in rats) [mg/kg] | ED50 ([3]; carrageenin edema test in rats) [mg/kg] | ED50 [1] [mg/kg] | ED50 [2] [mg/kg] | ED50 [3] [mg/kg] |
| --- | --- | --- | --- | --- | --- | --- |
| CCC1Cc2ccc(C(C)C(=O)O)cc2C1 (stereo not drawn) [2-(2-Ethylindan-5-yl)propionic acid] | 1.7 | 10.5 | 10.3 | – | – | – |
| CC(C(=O)O)c1ccc2c(c1)CC(C(C)C)C2 (stereo not drawn) [2-(2-Isopropylindan-5-yl)propionic acid] | 1.8 | 2.5 | 7.1 | – | – | – |
| CC(=O)Oc1ccccc1C(=O)O [Acetylsalicylic acid, reference compound] | – | – | – | 194 | 81 | 133 |
